Read-outs that look alike come from different tables or passages of the source.
What was measured:
PLC/PRF/5 hepatoma cells = test: Cytostatic assay, PLC/PRF/5; assay type: cell-based; conditions: Homo sapiens, Table 4
Experimental: (§1) To each well of a 96-well microtiter plate were added 5-7.5×10^4 cells and a given amount of the test compound. The cells were allowed to proliferate for 48 h to 96 h (depending on the nature of the cell line) at 37° C. in a humidified CO2-controlled atmosphere. At the end of the incubation period, the cells were counted in a Coulter Counter (Coulter Electronics Ltd, Harpenden Herts, United Kingdom).

[1] = tested on: MCF-7 mammary carcinoma cells; test: Cytostatic assay, MCF-7; assay type: cell-based; conditions: Homo sapiens, MCF7; Table 3
Experimental: as §1

[2] = tested on: BAEC aortic endothelial cells; test: Cytostatic assay, BAEC; assay type: cell-based, bovine; conditions: Bos taurus, Table 3
Experimental: as §1

L1210 cells = test: Cytostatic assay, L1210; assay type: cell-based; conditions: Mus musculus, Table 2
Experimental: as §1

U87 glioma cells = test: Cytostatic assay, U87; assay type: cell-based; conditions: Homo sapiens, U-87 MG; Table 3
Experimental: as §1

[3] = tested on: THP-1, human monocytic cells; test: Cytostatic assay, THP-1; assay type: cell-based; conditions: Table 2
Experimental: as §1

Molt4/C8 cells = test: Cytostatic assay, Molt4/C8; assay type: cell-based; conditions: Table 2
Experimental: as §1

BPH-1 (UZ) = test: Cytostatic assay, BPH-1 (UZ); assay type: cell-based; conditions: Homo sapiens, Table 4
Experimental: as §1

[4] = tested on: 293T embryonic kidney cells; test: Cytostatic assay, 293T; assay type: cell-based; conditions: Homo sapiens, HEK-293T; Table 3
Experimental: as §1

[5] = tested on: DU145 (UZ) prostate cancer cells; test: Cytostatic assay, DU145 (UZ); assay type: cell-based; conditions: Homo sapiens, DU-145; Table 4
Experimental: as §1

[6] = tested on: Raji, human B-lymphoma cells; test: Cytostatic assay, Raji; assay type: cell-based; conditions: Table 2
Experimental: as §1

[7] = tested on: PNT1A (UZ) prostate cells; test: Cytostatic assay, PNT1A (UZ); assay type: cell-based; conditions: Homo sapiens, Table 4
Experimental: as §1

[8] = tested on: HeLa cervix carcinoma cells; test: Cytostatic assay, HeLa; assay type: cell-based, human; conditions: Homo sapiens; Table 3; read-out: Cytostatic activity (μM) Hela
Summary of the method: (§2)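 Test compound was added to wells holding 5-7.5×10^4 cells. After line-specific growth periods of 48 h to 96 h at 37° C in a moist atmosphere with regulated CO2, the number of cells was recorded by Coulter counting.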

[9] = tested on: Caki-1 kidney carcinoma cells; test: Cytostatic assay, Caki-1; assay type: cell-based; conditions: Homo sapiens, Table 3
Experimental: as §1

HUT-78 cells = test: Cytostatic assay, HUT-78; assay type: cell-based; conditions: Homo sapiens, HuT78; Table 2
Experimental: as §1

[10] = tested on: HT29 colorectal carcinoma cells; test: Cytostatic assay, HT29; assay type: cell-based; conditions: Homo sapiens, HT-29; Table 3
Experimental: as §1

[11] = tested on: U937, human monocytic cells; test: Cytostatic assay, U937; assay type: cell-based; conditions: U-937, Table 2
Experimental: as §1

[12] = tested on: Caki-2 kidney carcinoma cells; test: Cytostatic assay, Caki-2; assay type: cell-based; conditions: Homo sapiens, Table 3
Experimental: as §1

C8166 cells = test: Cytostatic assay, C8166; assay type: cell-based; conditions: Homo sapiens, Table 2
Experimental: as §1

[13] = tested on: 22Rv1 (UZ) prostate cancer cells; test: Cytostatic assay, 22Rv1 (UZ); assay type: cell-based; conditions: Homo sapiens, Table 4
Experimental: as §1

[14] = tested on: OST TK- osteosarcoma cells; test: Cytostatic assay, OST TK-; assay type: cell-based; conditions: Homo sapiens; Table 3
Experimental: as §1

[15] = tested on: FM3A mammary carcinoma cells; test: Cytostatic assay, FM3A; assay type: cell-based, murine; conditions: Mus musculus, Table 3
Experimental: as §1

[16] = tested on: HL60, human leukemia cells; test: Cytostatic assay, HL-60; assay type: cell-based; conditions: Table 2
Experimental: as §1

MT-2 cells = test: Cytostatic assay, MT-2; assay type: cell-based; conditions: Homo sapiens, MT2; Table 2
Experimental: as §1

[17] = tested on: LNCaP (UZ) prostate cancer cells; test: Cytostatic assay, LNCaP (UZ); assay type: cell-based; conditions: Homo sapiens, Table 4
Experimental: as §1

[18] = tested on: HEL embryonic lung fibroblast cells; test: Cytostatic assay, HEL; assay type: cell-based; conditions: Homo sapiens, Table 3
Experimental: as §1

Huh-7 hepatoma cells = test: Cytostatic assay, Huh-7; assay type: cell-based; conditions: Homo sapiens, Table 4
Experimental: as §1

[19] = tested on: PC3 (rega) prostate cancer cells; test: Cytostatic assay, PC3 (rega); assay type: cell-based; conditions: Table 4
Experimental: as §1

Sup T1 cells = test: Cytostatic assay, Sup T1; assay type: cell-based; conditions: Homo sapiens, Table 2, read-out: Cytostatic activity (μM) Sup T 1
Experimental: as §1

[20] = tested on: PC-3 (UZ) prostate cancer cells; test: Cytostatic assay, PC-3 (UZ); assay type: cell-based; conditions: Table 4
Experimental: as §1

HepG2C3A hepatoma cells = test: Cytostatic assay, HepG2C3A; assay type: cell-based; conditions: Homo sapiens, HepG2/C3A; Table 4
Experimental: as §1

MT-4 cells = test: Cytostatic assay, MT-4; assay type: cell-based; conditions: Homo sapiens, MT4; Table 2
Experimental: as §1

CEM cells = test: Cytostatic assay, CEM; assay type: cell-based; conditions: Homo sapiens, CCRF-CEM
Summary of the method: as §2

[21] = tested on: broad variety of tumor cell lines; test: Cytostatic assays, summary over the panel of cell lines (Tables 2-4); assay type: cell-based; conditions: range over the cell lines of Tables 2-4; read-out: IC50 range (antiproliferative activity)
Experimental: as §1

[22] = Table 1a, read-out: IC50 μM (CEM)
[23] = Table 2, read-out: Cytostatic activity (μM) CEM

Row | Compound | IC50 (PLC/PRF/5 hepatoma cells) [µM] | IC50 [1] [µM] | IC50 [2] [µM] | IC50 (L1210 cells) [µM] | IC50 (U87 glioma cells) [µM] | IC50 [3] [µM] | IC50 (Molt4/C8 cells) [µM] | IC50 (BPH-1 (UZ)) [µM] | IC50 [4] [µM] | IC50 [5] [µM] | IC50 [6] [µM] | IC50 [7] [µM] | IC50 [8] [µM] | IC50 [9] [µM] | IC50 (HUT-78 cells) [µM] | IC50 [10] [µM] | IC50 [11] [µM] | IC50 [12] [µM] | IC50 (C8166 cells) [µM] | IC50 [13] [µM] | other results
1 | COC(=O)c1cc(CCc2cccnc2)sc1N [TR597, 2-Amino-5-(2-pyridin-3-yl-ethyl)-thiophene-3-carboxylic acid methyl ester] | > 100 | 71 ± 30 | > 100 | 235 ± 49 | > 100 | > 200 | 47 ± 15 | > 100 | > 100 | 60 ± 21 | > 100 | > 100 | 170 ± 25 | 7.7 ± 0.5 | 59 ± 33 | > 100 | > 200 | > 200 | ≥ 200 | ≥ 100 | IC50 [14]: ≥ 111 µM; IC50 [15]: 164 ± 30 µM; IC50 [16]: 63 ± 15 µM; IC50 (MT-2 cells): 38 ± 15 µM; IC50 [17]: 7.4 ± 0.75 µM; IC50 [18]: ≥ 100 µM; IC50 (Huh-7 hepatoma cells): 78 ± 32 µM; IC50 [19]: 6.3 ± 4.7 µM; IC50 (Sup T1 cells): 147 ± 66 µM; IC50 [20]: 12 ± 5.5 µM; IC50 (HepG2C3A hepatoma cells): > 100 µM; IC50 (MT-4 cells): > 100 µM; IC50 (CEM cells; [22]): 50 µM; IC50 (CEM cells; [23]): 50 ± 6.4 µM
2 | N#Cc1cc(CCc2ccccc2)sc1N [TR588, 2-Amino-5-phenethyl-thiophene-3-carbonitrile] | 41 ± 3.5 | 26 ± 2.1 | 45 ± 4.9 | 40 ± 6 | 46 ± 7.8 | 8.4 ± 0.28 | 8.5 ± 3.4 | ≥ 100 | 34 ± 14 | 24 ± 4.9 | 39 ± 21 | 66 ± 31 | 27 ± 28 | 1.3 ± 0.4 | 18 ± 7.1 | 66 ± 6.4 | 42 ± 2.1 | 78 ± 69 | ≥ 200 | 61 ± 34 | IC50 [14]: 27 ± 18 µM; IC50 [15]: 67 ± 23 µM; IC50 [16]: 3.9 ± 0.5 µM; IC50 (MT-2 cells): 6.65 ± 1.9 µM; IC50 [17]: 5.3 ± 4.3 µM; IC50 [18]: 30 ± 6.4 µM; IC50 (Huh-7 hepatoma cells): 21 ± 7.1 µM; IC50 [19]: 3.1 ± 1.2 µM; IC50 (Sup T1 cells): > 200 µM; IC50 [20]: 11 ± 4.2 µM; IC50 (HepG2C3A hepatoma cells): 64 ± 52 µM; IC50 (MT-4 cells): 75 ± 35 µM; IC50 (CEM cells; [22]): 47 µM; IC50 (CEM cells; [23]): 47 ± 25 µM
3 | COc1ccc(-c2cc(C#N)c(N)s2)cc1 [TR582, 2-Amino-5-(4-methoxy-phenyl)-thiophene-3-carbonitrile] | 49 ± 3.5 | 117 ± 58 | > 100 | 230 ± 65 | > 100 | 124 ± 25 | 275 ± 89 | > 100 | > 100 | > 100 | > 100 | > 100 | 168 ± 15 | 19 ± 18 | > 200 | > 100 | > 200 | ≥ 200 | > 200 | 34 ± 26 | IC50 [21]: 24 to 320 µM; IC50 [14]: 134 ± 69 µM; IC50 [15]: 320 ± 14 µM; IC50 [16]: ≥ 135 µM; IC50 (MT-2 cells): ≥ 161 µM; IC50 [17]: 4.8 ± 3.4 µM; IC50 [18]: 33 ± 0.71 µM; IC50 (Huh-7 hepatoma cells): > 100 µM; IC50 [19]: 69 ± 21 µM; IC50 (Sup T1 cells): > 200 µM; IC50 [20]: > 100 µM; IC50 (HepG2C3A hepatoma cells): ≥ 100 µM; IC50 (MT-4 cells): 76 ± 35 µM; IC50 (CEM cells; [22]): 233 µM; IC50 (CEM cells; [23]): 233 ± 29 µM
